Patent US6995184B2, “3-arylindole derivatives and their use as CB2 receptor agonists” (Sanofi-Aventis, priority 2000, dated 2006)

Molecular target: T1, cannabinoid receptors present in the mouse spleen (Mus musculus, UniProt P47936)
T1 construct: from tissue; host or cells: mouse spleen
Assay: In vivo affinity for cannabinoid receptors in mouse spleen after oral administration
Procedure: The tests were carried out according to the experimental conditions described by Rinaldi-Carmona et al., J. Pharmacol. Exp. Ther., 1998, 284, 644–650.
Thus, the compounds of Examples 7, 44, 46, 72, 89, 106, 120, 130 and 132, for which the ratio of the affinity for the CB1 receptors to that for the CB2 receptors is between 400 and 4 000, are active orally with an ED50 of between 0.2 mg/kg and 20 mg/kg.

T1 sequence (P47936 whole entry): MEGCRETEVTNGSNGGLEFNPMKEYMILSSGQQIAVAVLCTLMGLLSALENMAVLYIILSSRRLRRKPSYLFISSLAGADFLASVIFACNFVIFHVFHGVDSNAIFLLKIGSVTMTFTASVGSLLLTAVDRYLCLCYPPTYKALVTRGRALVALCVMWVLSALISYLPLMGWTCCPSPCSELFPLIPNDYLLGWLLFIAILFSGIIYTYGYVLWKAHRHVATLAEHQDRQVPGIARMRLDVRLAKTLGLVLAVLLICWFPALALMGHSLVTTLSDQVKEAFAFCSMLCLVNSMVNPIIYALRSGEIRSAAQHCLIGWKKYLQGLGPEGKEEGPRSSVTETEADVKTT

Row | SMILES | ED50 [mg/kg]
1 | Cc1c(C(=O)c2cccc(C(F)(F)F)c2F)c2ccc(Cl)c(Cl)c2n1CCCNS(C)(=O)=O [Example 72, N-(3-(6,7-Dichloro-3-[2-fluoro-3-(trifluoromethyl)benzoyl]-2-methyl-1H-indol-1-yl)propyl)methanesulphonamide] | 0.2 to 20
2 | Cc1c(C(=O)c2cccc(Cl)c2Cl)c2cccc(Br)c2n1CCCS(C)(=O)=O [Example 7, (7-Bromo-2-methyl-1-(3-(methylsulphonyl)propyl)-1H-indol-3-yl)(2,3-dichlorophenyl)methanone] | 0.2 to 20
